In US9422238B2, “ICMT inhibitors” (National University of Singapore, priority 2012, dated 2016):
In brackets after ≈: the same amount, converted by molar mass. Several values for one entry are separate records, joined by “and”; a condition that tells them apart may be missing. Equal values may be shown once. Read-outs that look alike come from different tables or passages of the source.

Key:
[1] = Aggregation tendency by dynamic light scattering (DLS); assay type: physicochemical; details: for DLS count rate (kcps): 1% DMSO, potassium phosphate buffer 5 mM pH 7.4
Description: Stock solutions (10 mM) of test compounds prepared in DMSO, diluted to 1 mM with DMSO and then serially diluted with potassium phosphate buffer (5 mM, pH 7.4, prefiltered before use) to give final concentrations of 1 μM and 10 μM. Final concentration of DMSO was 1% v/v. Measurements were carried out on the Malvern Instrument Zetasizer Nano ZS system equipped with a 4 mW He—Ne laser at 633 nm and detector angle of 90°. Three or more determinations of derived count rates (kilocounts per second, kcps) were obtained from each concentration of test compound, using two separately prepared stock solutions. Data collection was carried out using the software supplied with the instrument. Results are represented as mean±standard deviation. The positive control was benzyl benzoate (250 μM) which gave a count rate of 1180 kcps (±35). The vehicle (phosphate buffer, 1% DMSO) gave a reading of 14.9±0.4.

[2] = test system: Human hepatocellular carcinoma HepG2 cells; assay: Cell viability (MTS, 72 h); assay type: cell-based
Description: Cell viability was determined from the expression:
The plot was constrained to ≧0 and ≦100%.
Human hepatocellular carcinoma HepG2 and human pancreatic cancer MIA PACA II cells were obtained from ATCC (Rockville, Md.). They were grown in DMEM (high glucose, Invitrogen) supplemented with 10% FBS, 50 μg/mL penicillin and 50 μg/mL streptomycin, 37° C., 5% CO2 until they reached 80-90% confluency, after which they were subcultured. Passage numbers were kept within 7-14 passages for both cell types.

[3] = physchem; details: for solubility at 24 h: 25 °C; for solubility at 24 h / solubility / solubility at 3 h: pH 7.4, aqueous buffer, kinetic from dmso stock
Description: The turbid solution was delivered to the filter plate, agitated for a specific time period and then filtered. The concentration of dissolved compound in the filtrate was determined by uv spectroscopy and referred to pre-constructed calibration curves for solubility determination.
(§1) Determination of aqueous solubility was carried out on Multiscreen® Solubility filter plates (Millipore-MSSLBPC10) from Millipore Corporation (MA, USA). The protocol (PC2445EN00, Millipore Corporation) was followed. Briefly, various concentrations of the test compound were prepared in Universal buffer (pH 7.4)/acetonitrile/DMSO. The UV absorbances of these solutions were obtained at a pre-determined wavelength and used to construct a calibration curve for the test compound. Next, a stock solution of the test compound in DMSO was prepared at a known concentration, diluted with Universal buffer (pH 7.4), dispensed into wells in the Multiscreen Solubility filter plate, and agitated for a period of time. The suspension is then filtered, the filtrate collected and diluted with acetonitrile to give the same solvent composition used to prepare the calibration solutions. The absorbance of the diluted filtrate was then read at the predetermined wavelength and the concentration of the filtrate (taken here to be equivalent to the solubility of the test compound) was determined from the calibration curve.
as §1, with “24 hours at room temperature (25 deg C.). […]” for “a period of time.”, “was” for “is then”, “was” for “was then”, “(equivalent” for “(taken here to be equivalent”, “curve. […] LCMS determinations were made on an Agilent 1200 Series HPLC linked to a AB Sciex Instruments 3200 Q TRAP LC/MS/MS. Separations were carried out on a Phenomenex Luna column [3u, C18(2), 100A, 5×4.6 mm]. […] Quantification was based on the ratio of peak areas of the daughter ion and the mother ion (M+H), normalized against the same ratio obtained for the internal standard. The solubility determinations were carried out in triplicates or more from two different stock solutions.” for “curve.”

[4] = HepG2, Table 6, mean (SD), read-out: IC50 (μM) HepG2
[5] = HepG2, further testing, 72 h, mean (SD), read-out: IC50 HepG2
[6] = HepG2, read-out: in vitro IC50 (horizontal line in FIGS. 14 and 15), cell line not stated

CCCCCCCCn1cc(CN(CC)CC)c2cc(-c3cnc(N)nc3)ccc21 [Compound 8-12, 5-(3-Diethylaminomethyl-1-octyl-1H-indol-5-yl)-pyrimidin-2-ylamine]
DLS count rate (kcps) ([1]; 1 μM): 24.5 kcps | DLS count rate (kcps) ([1]; 10 μM): 53.3 kcps | fold increase in light scattering ([1]; concentration increased from 1 μM to 10 μM): 2 | IC50 [2, 4]: 1.65 µM | IC50 [2, 5]: 1.65 µM | IC50 [2, 6]: 1.7 µM | solubility at 24 h [3]: 156 µM and 64 µg/mL | Aqueous Solubility (pH 7.4) 24 hours ([3]; 24 h, pH 7.4): 155.9 (6.4) μM | solubility [3]: ~65 µg/mL (≈ 159 µM) | solubility at 3 h [3]: 166 µM (≈ 67.7 µg/mL)

CCCCCCCCn1c2c(c3cc(-c4cnc(N)nc4)ccc31)CN(C)CC2 [Compound 305, 8-(2′-amino-pyrimidin-5′-yl)-2-methyl-5-n-octyl-1,2,3,4-tetrahydropyrido[4,3-b]indole]
DLS count rate (kcps) ([1]; 1 μM): 21.0 kcps | DLS count rate (kcps) ([1]; 10 μM): 29.0 kcps | IC50 [2, 5]: 1.73 µM | solubility at 24 h [3]: 40.6 µM (≈ 15.9 µg/mL) | Solubility (μM) ([3]; 24 h, pH 7.4): 40.6 (1.75) μM | solubility [3]: 20 µg/mL (≈ 51.1 µM) | solubility at 3 h [3]: 49.5 µM (≈ 19.4 µg/mL)

CCCCCCCCn1cc(CC(N)=O)c2cc(-c3cccc(C)c3)ccc21 [Cysmethynil, 2-[5-(3-methylphenyl)-1-octyl-1H-indolo-3-yl]acetamide, reference compound]
DLS count rate (kcps) ([1]; 1 μM): 22.6 kcps | DLS count rate (kcps) ([1]; 10 μM): 164.0 kcps | IC50 [2, 4]: 21.8 µM | IC50 [2, 5]: 21.8 µM | IC50 [2, 6]: 22 µM | solubility at 24 h [3]: < 1 µM | solubility at 3 h [3]: < 1 µM
